According to patent US7425556B2 (priority 2005, dated 2008):

What was measured:
[1] = biological target: T1, GABAA2 receptors (α2, β3, γ2 receptor subunits) (Homo sapiens, UniProt P18507+P47869); test: biochemical; conditions: [3H]-Flunitrazepam ~2 nM, α2β3γ2 Sf9 membranes, 1 hr at 4° C.; read-out: GABAA2 Binding Ki
T1 construct: host or cells: Sf9 cells (membranes)
Procedure: In some embodiments, the binding test was directed to a subtype of GABAA receptors, such as GABAA1 receptors (i.e., those containing the α1 subunit), GABAA2 receptors (i.e., those containing the α2 subunit), GABAA3 receptors (i.e., those containing the α3 subunit) and GABAA5 receptors (i.e., those containing the α5 subunit).
[formula] Method FF GABAA2 Binding Method Reagents
Assay and Wash Buffer: 50 mM Tris-Citrate, 200 mM NaCl, pH 7.8
Compounds at 10 mM in DMSO: Put 75 μl in column 1 of compound plate.
Flumazenil, 10 mM (for NSB)
[^3H]-Flunitrazepam (Cat #NET567): Prepare 10× stock=20 nM, [F} in assay=˜2 nM
1. […] Add 5 ul of 30 uM flumazenil to wells 12 D-E for 50% control wells.
2. Spot 2 μl of compound dilutions into dry plate (Automation Program 3). Manually spot 2 μl 10 mM flumazenil into wells 12 F-H for nonspecific control.
3. Make 1:100 dilution in assay buffer (2 μl into 200 μl) and dispense 25 μl compound into assay plates (Automation Program 4).
4. Dispense 200 μl membranes into assay plate (Automation Program 5).
5. Add 25 μl [^3H]-Flunitrazepam (Automation Program 6). Incubate for 1 hr at 4° C.
6. Collect membranes on a cell harvester onto GF/B filter plates (pre-wet with dH2O and wash 5×400 μl/well, with cold assay buffer. (First 3 washes are considered hot; last two are cold.)
7. Dry plates for 2-3 hours at RT.
8. Add 40 μl Microsecond 40/well (Automation Program 7); seal plates. Count on a Top Count.
Data is analyzed by calculating percent of control, IC50, and Kid in an Lift template. The following formula is used in the templates: […]

[2] = biological target: T2, GABAA2 (human α2β3γ2 GABAA receptor) (Homo sapiens, UniProt P18507+P47869); test: Two-electrode voltage-clamp in Xenopus oocytes, potentiation of GABA EC10 current, GABAA2; type: cell-based; conditions: percentage potentiation of GABA EC10 current divided by that of diazepam
T2 construct: expressed in transfected cells; host or cells: Xenopus laevis oocytes injected with capped cRNA
Description: (§1) Presently available GABAA modulator anxiolytics work via interactions at the classical benzodiazepine binding site. To a large degree these anxiolytics lack GABAA receptor subtype-selectivity. The subtype-selective GABAA receptor modulators may offer more advantages. […] Sedation, a side-effect common to all marketed benzodiazepines, is believed to be mediated by interactions at GABAARs containing the α1 subunit. To develop anxiolytics with minimal liabilities due to interactions with other subunits, an electrophysiological assay was developed to screen modulatory effects of various compounds on different GABA subunit combinations heterologously expressed in Xenopus oocytes.
(§2) GABAA receptors were heterologously expressed in Xenopus oocytes by injecting cRNA corresponding to human α1, α2, α3, α5, β2, β3 and γ2 subunits of the GABAA receptor genes. The specific subunit combinations (subtypes) were as follows: α1β2γ2, α2β3γ2, α3β3γ2, and α5β3γ2. The EC10 of GABA was approximated for each cell. Stability of GABA-mediated (EC10) current was established. Modulatory effect of test compound was determined and compared across subtypes. […] Thus, the assay can characterize modulatory effects and determine subtype selectivity of test compounds on major subtypes of GABAA receptors.
(§3) Xenopus laevis frogs (Xenopus I, Kalamazoo, MI) were anesthetized using 0. […] Surgically removed ovarian lobes were teased out in OR2 solution (82 NaCl, 2.5 KCl, 5 HEPES, 1.5 NaH2PO4, 1 MgCl2, 0.1 EDTA, in mM, pH 7.4). The acolytes were deflocculated by incubation in 25 mL OR2 containing 0.2% collagens 1A (SIGMA) two times for about 60 minutes on a platform shaker and stored in Leibovitz's L-15 medium. Acolytes were injected the following day in 0.5× Leibovitz's L-15 medium containing […] gentamycin, 10 units/ml penicillin, and […] streptomycin.
(§4) Capped cRNAs from the linear zed vectors containing human α1, β2 and γ2 subunits of the GABAA receptor genes were mixed in ratio of […]. Acolytes were injected with 25-50 nL of mixed RNA with an appx molar ratio for α1, β2 and γ2 as 1:1:10. Acolyte recordings were done 2-10 days after injection. The same methods apply to subtypes derived from α2β3γ2, α3β3γ2, and α5β3γ2, except for 1:1:1 ratio was used for α, β, and γ subunits.
(§5) All measurements were done in a medium containing ND-96 (96 NaCl, 2 KCl, 1.8 CaCl2.2H2O, 1 MgCl2.6H2O, 5 HEPES, in mM, pH 7.5). Two-electrode voltage-clamp recording was carried out using Opus press amplifier (Axon Instruments, Foster City, Calif.), which allows simultaneous recording from 8 acolytes. Acolytes were impaled with two electrodes of 1-2 MΩ tip resistance when filled with 3M KCl. Recordings were begun when membrane potential became stable at potentials negative to −50-−60 mV. Membrane potential was held at −60 mV. […] The concentration of GABA corresponded to the EC10 value calculated for each acolyte. The modulator pulses started 30 s before the GABA pulse so as to allow preoccupation with the modulator. A set of 3 pulses with just GABA without modulator was given prior to the modulator-containing pulses to define the baseline GABA response. Two acolytes per each experiment were dedicated to observe the effect of diazepam on GABA response to ensure the presence of γ subunit in the GABAA pantomimic complex, which imparts diazepam sensitivity to the complex.
(§6) Current amplitude (i) was measured from baseline to peak using Clamp fit (Axon Inst., Foster City, Calif.). Potentiating was calculated as percent change from the baseline GABA current flux 100×(imod/icontrol)−1) where imod=current mediated by modulator+GABA and icontrol=current mediated by GABA alone. […] Similarly, a value of −50% potentiating means the presence of modulator caused a 50% decrease in the control current.

[3] = biological target: T3, GABAA1 (human α1β2γ2 GABAA receptor) (Homo sapiens, UniProt P14867+P18507); test: Two-electrode voltage-clamp in Xenopus oocytes, potentiation of GABA EC10 current, GABAA1; type: cell-based; conditions: percentage potentiation of GABA EC10 current divided by that of diazepam
T3 construct: expressed in transfected cells; host or cells: Xenopus laevis oocytes injected with capped cRNA
Description: as §1, §2, §3, §4, §5, §6

T3 sequence (P14867 28-456): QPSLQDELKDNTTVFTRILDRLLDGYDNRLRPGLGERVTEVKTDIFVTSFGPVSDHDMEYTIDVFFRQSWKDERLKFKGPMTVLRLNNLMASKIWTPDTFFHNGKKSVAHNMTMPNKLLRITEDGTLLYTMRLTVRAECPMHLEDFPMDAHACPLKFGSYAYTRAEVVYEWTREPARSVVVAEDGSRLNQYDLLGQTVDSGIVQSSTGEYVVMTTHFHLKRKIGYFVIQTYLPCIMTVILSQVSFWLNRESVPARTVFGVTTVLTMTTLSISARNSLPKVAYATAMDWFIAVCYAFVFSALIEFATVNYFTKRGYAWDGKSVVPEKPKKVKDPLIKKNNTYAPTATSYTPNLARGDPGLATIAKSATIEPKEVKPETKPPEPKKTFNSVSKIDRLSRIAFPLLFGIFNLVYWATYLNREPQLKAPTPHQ
T3 sequence (P47870 25-512 partner limits assumed): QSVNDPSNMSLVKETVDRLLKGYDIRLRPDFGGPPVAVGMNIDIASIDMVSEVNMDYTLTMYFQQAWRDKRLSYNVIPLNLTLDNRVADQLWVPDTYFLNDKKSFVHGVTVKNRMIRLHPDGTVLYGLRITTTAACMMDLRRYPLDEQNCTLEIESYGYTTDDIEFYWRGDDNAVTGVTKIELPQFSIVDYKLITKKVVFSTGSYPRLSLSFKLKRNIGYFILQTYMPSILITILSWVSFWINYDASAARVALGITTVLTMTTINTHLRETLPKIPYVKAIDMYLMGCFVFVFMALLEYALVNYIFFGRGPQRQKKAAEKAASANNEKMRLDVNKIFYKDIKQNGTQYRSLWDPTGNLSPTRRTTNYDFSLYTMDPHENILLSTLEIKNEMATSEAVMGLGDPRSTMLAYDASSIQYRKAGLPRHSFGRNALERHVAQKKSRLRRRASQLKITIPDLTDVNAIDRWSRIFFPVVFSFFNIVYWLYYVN
T3 sequence (P18507 40-475): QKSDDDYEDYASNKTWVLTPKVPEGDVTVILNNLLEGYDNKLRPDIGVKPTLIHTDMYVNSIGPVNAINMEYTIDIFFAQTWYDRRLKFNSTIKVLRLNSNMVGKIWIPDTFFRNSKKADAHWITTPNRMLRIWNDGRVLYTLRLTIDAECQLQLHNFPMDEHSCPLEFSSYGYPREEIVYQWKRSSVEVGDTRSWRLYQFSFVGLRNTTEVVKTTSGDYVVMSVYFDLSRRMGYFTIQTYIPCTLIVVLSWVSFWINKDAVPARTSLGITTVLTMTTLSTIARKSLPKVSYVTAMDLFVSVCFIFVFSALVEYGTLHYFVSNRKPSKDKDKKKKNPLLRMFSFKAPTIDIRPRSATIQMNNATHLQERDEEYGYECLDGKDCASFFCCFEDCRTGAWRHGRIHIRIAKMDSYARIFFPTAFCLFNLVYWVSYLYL
T2 sequence (P47869 29-451): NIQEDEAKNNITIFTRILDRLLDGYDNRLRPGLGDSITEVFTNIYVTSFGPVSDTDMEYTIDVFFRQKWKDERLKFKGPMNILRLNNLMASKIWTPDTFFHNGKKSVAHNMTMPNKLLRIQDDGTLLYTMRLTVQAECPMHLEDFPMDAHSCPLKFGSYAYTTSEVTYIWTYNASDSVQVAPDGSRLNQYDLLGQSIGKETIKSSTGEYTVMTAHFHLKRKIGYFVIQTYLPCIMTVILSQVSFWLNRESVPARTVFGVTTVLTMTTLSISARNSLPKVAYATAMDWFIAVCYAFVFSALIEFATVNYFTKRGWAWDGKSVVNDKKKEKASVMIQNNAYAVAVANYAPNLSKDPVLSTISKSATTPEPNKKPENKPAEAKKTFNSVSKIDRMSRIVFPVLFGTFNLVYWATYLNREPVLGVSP
T2 sequence (P28472 26-473 partner): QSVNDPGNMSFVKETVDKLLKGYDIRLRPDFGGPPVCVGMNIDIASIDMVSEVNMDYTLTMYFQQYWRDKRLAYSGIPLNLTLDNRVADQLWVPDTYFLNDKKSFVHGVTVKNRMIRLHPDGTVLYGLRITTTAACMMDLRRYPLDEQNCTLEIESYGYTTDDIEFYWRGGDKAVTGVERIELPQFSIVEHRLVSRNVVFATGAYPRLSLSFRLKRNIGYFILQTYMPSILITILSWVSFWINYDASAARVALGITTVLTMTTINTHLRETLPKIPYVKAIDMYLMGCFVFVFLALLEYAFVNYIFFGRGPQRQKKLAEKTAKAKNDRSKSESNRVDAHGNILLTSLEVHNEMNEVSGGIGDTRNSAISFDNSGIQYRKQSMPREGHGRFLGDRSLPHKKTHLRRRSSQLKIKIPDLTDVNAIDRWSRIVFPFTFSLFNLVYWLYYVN
T2 sequence (P18507 40-475): as the sequence (P18507 40-475) above
T1 sequence (P47869 29-451): as the sequence (P47869 29-451) above
T1 sequence (P28472 26-473 partner): as the sequence (P28472 26-473 partner) above
T1 sequence (P18507 40-475): as the sequence (P18507 40-475) above

Compound | Ki [1] [nM] | Relative Potentiation for GABAA2 [2] | Relative Potentiation for GABAA1 [3]
CCCNC(=O)c1nnc2c(-c3cccc(F)c3F)cccc2c1N | 0.558 | 0.17 | −0.11
CCCNC(=O)c1nnc2c(-c3ccc(OC)nc3OC)cccc2c1N | 0.56 | 0.25 | 0.17
CCCNC(=O)c1nnc2c(-c3ccc(F)cc3OC)c(F)ccc2c1N | 0.565 | 0.18 | −0.028
CCCNC(=O)c1nnc2c(-c3ccc(OC)cc3F)c(F)ccc2c1N | 0.613 | 0.18 | 0.053
CCCNC(=O)c1nnc2c(-c3cccc(C)c3C)c(F)ccc2c1N | 0.615 | 0.13 | 0.11
COc1cccc(F)c1-c1cccc2c(N)c(C(=O)NC3CC3)nnc12 | 0.698 | 0.16 | −0.048
CCCNC(=O)c1nnc2c(-c3cc(Cl)ccc3Cl)cccc2c1N | 0.71 | 0.21 | 0.12
CCCNC(=O)c1nnc2c(-c3cc(F)ccc3C)c(F)ccc2c1N | 0.735 | 0.12 | 0.032
CCCNC(=O)c1nnc2c(-c3cc(C)ccc3F)cccc2c1N | 0.852 | 0.37 | 0.095
CCCNC(=O)c1nnc2c(-c3cnc(OC)nc3OC)c(F)ccc2c1N | 0.918 | 0.39 | 0.12
CCCNC(=O)c1nnc2c(-c3cc(C)ccc3OC)c(F)ccc2c1N | 0.937 | 0.37 | 0.23
CCCNC(=O)c1nnc2c(-c3cccc(OC)c3F)c(F)ccc2c1N | 0.941 | 0.23 | 0.05
CCCNC(=O)c1nnc2c(-c3cc(F)ccc3OC)c(F)ccc2c1N | 0.98 | 0.22 | 0.085
CCCNC(=O)c1nnc2c(-c3cc(F)ccc3F)cccc2c1N | 0.996 | 0.29 | −0.078
CCCNC(=O)c1nnc2c(-c3ccccc3)c(F)ccc2c1N | 1 | 0.02 | −0.093
CCCNC(=O)c1nnc2c(-c3cc(Cl)ccc3OC)cccc2c1N | 1.11 | 0.4 | 0.38
CCCNC(=O)c1nnc2c(-c3cccnc3F)cccc2c1N | 1.13 | 0.17 | −0.083
CCCNC(=O)c1nnc2c(-c3cccc(C#N)c3)cccc2c1N | 1.18 | 0.31 | 0.088

Compound | Ki [1] [nM] | Relative Potentiation for GABAA2 [2] | Relative Potentiation for GABAA1 [3]
CCCNC(=O)c1nnc2c(-c3cc(OC)ccc3Cl)c(F)ccc2c1N | 1.25 | 0.19 | 0.14
CCCNC(=O)c1nnc2c(-c3cc(C)ccc3C)c(F)ccc2c1N | 1.31 | 0.28 | 0.21
CCCNC(=O)c1nnc2c(-c3cc(C(F)(F)F)ccc3Cl)cccc2c1N | 1.36 | 0.59 | 0.47
CCCNC(=O)c1nnc2c(-c3cc(F)c(OC)cc3F)cccc2c1N | 1.49 | 0.21 | 0.016
CCCNC(=O)c1nnc2c(-c3ccncc3)cccc2c1N | 1.67 | 0.1 | −0.038
CCCNC(=O)c1nnc2c(-c3ccc(N(C)C)cc3)cccc2c1N | 26.6 | 0.18 | 0.07
CCCNC(=O)c1nnc2c(-c3ccc(C)cc3)cccc2c1N | 29 | 0.11 | 0.013
CCCNC(=O)c1nnc2c(-c3ccc4[nH]ccc4c3)cccc2c1N | 35 | 0.16 | 0.15
CNC(=O)c1nnc2c(-c3cc(C)ccc3OC)cccc2c1N | 35.8 | 0.43 | 0.19
CCCNC(=O)c1nnc2c(-c3cc(C)c(OC)c(C)c3)cccc2c1N | 35.8 | 0.32 | 0.79
CCCNC(=O)c1nnc2c(-c3ccc4ccccc4c3)cccc2c1N | 43.3 | 0.09 | 0.22
CCCNC(=O)c1nnc2c(-c3cc(F)ccc3F)c(F)ccc2c1N | 45.8 | 0.098 | 0.013
CCCNC(=O)c1nnc2c(-c3cccc(OC(F)(F)F)c3)cccc2c1N | 47.8 | 0.48 | 0.87
CCCNC(=O)c1nnc2c(-c3cccc(C(=O)O)c3)cccc2c1N | 53.8 | 0.08 | −0.038
CCCNC(=O)c1nnc2c(-c3cc(OC)c(OC)c(OC)c3)cccc2c1N | 56.5 | 0.67 | 0.4
CCCNC(=O)c1nnc2c(-c3ccccc3)c(OC)ccc2c1N | 91.4 | 0.08 | 0.12
CCCNC(=O)c1nnc2c(-c3ccc(F)c(-c4ccc(F)cc4C#N)c3)cccc2c1N | 150 | 0.023 | 0.09
CCCNC(=O)c1nnc2c(-c3cc(C(F)(F)F)cc(C(F)(F)F)c3)cccc2c1N | 356 | 0.13 | 0.44
